Test results reported in patent US6620587B1, “Ribosome complexes as selection particles for in vitro display and evolution of proteins” (Discerna Limited, priority 1997, dated 2003).

Target: DB3 VH/K expressed as an ARM
Test: Inhibition by free steroids of DB3 VH/K ARM binding to progesterone-coated beads
Parameters: species or system mouse
Settings: free steroid added to DB3 ARM mixture
Experimental: FIG. 6. […] This supports the correct folding of the antibody fragment on the ribosome.
The free steroid inibitors were added to the DB3 ARM mixture in order to block binding to the progesterone-coated beads. They are progesterone-11α-hemisuccinate (HMS) (P11), progesterone-3-carboxymethyloxime (P3); progesterone-6-HMS (P6) and progesterone-21-HMS (P21). The inhibition of free DB3 VH/K in an ELISA reaction is shown on the right, with the efficiency of the steroids in the order P11>P3>P6>P21.

50% inhibition of DB3 VH/K ARM binding: 1 ng | IC50 (read-out: 50% inhibition of DB3 VH/K ARM binding): 2.5 nM
SMILES: CC(=O)[C@H]1CC[C@H]2[C@@H]3CCC4=CC(=O)CC[C@]4(C)[C@H]3[C@H](OC(=O)CCC(=O)O)C[C@]12C [progesterone-11α-HMS, progesterone-11α-hemisuccinate]
